From patent US9060515B2, “Heterocyclic urea compounds” (BIOTA EUROPE LTD, priority 2011, dated 2015) come the findings set out here.

SMILES strings stand for the structures. Values after ≈ are worked out from the molar mass of the structure shown.

Assay type in all cases: cell-based
One test concerns S. aureus (ATCC 29213). Briefly: Antibacterial susceptibility testing (MIC, broth microdilution or agar dilution), S. aureus. To be noted: Staphylococcus aureus, ATCC29213; read-out: S. aureus (ATCC 29213) minimal inhibitory concentration (MIC). Put shortly: (§1)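 MICs by CLSI (M7-A7) broth microdilution or agar dilution, against reference ATCC strains as listed.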
The test system of a further test is S. pyogenes (ATCC 51339). Briefly: Antibacterial susceptibility testing (MIC, broth microdilution or agar dilution), S. pyogenes. To be noted: Streptococcus pyogenes, ATCC51339; read-out: S. pyogenes (ATCC 51339) minimal inhibitory concentration (MIC). Put shortly:
as §1
A general note: In broth dilution the organism is exposed to a series of concentrations in liquid medium.

Test [1] concerns H. influenzae (ATCC 49247). Put plainly: Antibacterial susceptibility testing (MIC, broth microdilution or agar dilution), H. influenzae. The conditions noted are these: Haemophilus influenzae, ATCC49247; read-out: H. influenzae (ATCC 49247) minimal inhibitory concentration (MIC). Here is the method:
Compounds of the invention were tested for antimicrobial activity by susceptibility testing in liquid or on solid media. MICs for compounds against each strain were determined by the broth microdilution or agar dilution method according to the guidelines of the Clinical Laboratories and Standards Institute, formerly the National Committee for Clinical Laboratory Standards (Clinical Laboratories and Standards Institute. Methods for Dilution Antimicrobial Susceptibility Tests for Bacteria That Grow Aerobically; Approved Standard—Seventh Edition. Document M7-A7. CLSI, Wayne, Pa., 2006; Clinical Laboratories and Standards Institute. The Gram positive bacterial strains tested include S. aureus (Staphylococcus aureus (Isolate ID ATCC 29213)), E. faecalis (Enterococcus faecalis (Isolate ID ATCC 29212)) and S. pyogenes (Streptococcus pyogenes (Isolate ID ATCC 51339)). The Gram negative bacterial strains tested include H. influenzae (Haemophilus influenzae (Isolate ID ATCC 49247)).

Regarding `CCNC(=O)Nc1cc(Nc2ccccc2)c(C(=O)Nc2ccc(CC(C)(C)C(=O)O)cc2)cn1` [Compound 130, 3-(4-(6-(3-ethylureido)-4-(phenylamino)nicotinamido)phenyl)-2,2-dimethylpropanoic acid], the MIC in the test on S. aureus (ATCC 29213) was not above 1 µg/mL; in the test on S. pyogenes (ATCC 51339) it was not above 1 µg/mL; in test [1] it was 4 µg/mL (≈ 8.41 µM).

Regarding `CCNC(=O)Nc1cc(Nc2ccccc2)c(C(=O)Nc2cc(C(=O)O)n(C)c2)cn1` [Compound 103, 4-(6-(3-ethylureido)-4-(phenylamino)nicotinamido)-1-methyl-1H-pyrrole-2-carboxylic acid], the MIC in the test with S. aureus (ATCC 29213) is 4 µg/mL (≈ 9.47 µM); in the test with S. pyogenes (ATCC 51339) it was not above 1 µg/mL; in test [1], 4 µg/mL (≈ 9.47 µM).

For `CCNC(=O)Nc1cc(Nc2ccccc2)c(C(=O)Nc2ccc(CCC(=O)OC)cc2)cn1` [Compound 77], the MIC in the test on S. aureus (ATCC 29213) was not above 1 µg/mL; in the test with S. pyogenes (ATCC 51339), not above 1 µg/mL; in test [1] it was 2 µg/mL (≈ 4.33 µM).

Regarding `CCNC(=O)Nc1cc(Nc2ccccc2)c(C(=O)Nc2ccc(CC(=O)OCC)cc2)cn1` [Compound 70, ethyl 2-(4-(6-(3-ethylureido)-4-(phenylamino)nicotinamido)phenyl)acetate], the MIC was not above 1 µg/mL in the test with S. aureus (ATCC 29213), not above 1 µg/mL with S. pyogenes (ATCC 51339) and 2 µg/mL (≈ 4.33 µM) in test [1].

On to `CCNC(=O)Nc1cc(Nc2cc(F)cc(F)c2)c(C(=O)Nc2ccc(CCc3nnn[nH]3)cc2)cn1` [Compound 161, 4-(3,5-difluoroanilino)-6-(ethylcarbamoylamino)-N-[4-[2-(1H-tetrazol-5-yl)ethyl]phenyl]pyridine-3-carboxamide], for which the MIC in the test on S. aureus (ATCC 29213) is not above 1 µg/mL; in test [1], 8 µg/mL (≈ 15.8 µM).

For the compound `CCNC(=O)Nc1cc(Nc2ccccc2Cl)c(C(=O)Nc2ccc(CC(C)(C)C(=O)O)cc2)cn1` [Compound 183, 3-{4-[({4-[(2-chlorophenyl)amino]-6-[(ethylcarbamoyl)amino]pyridin-3-yl}carbonyl)amino]phenyl}-2,2-dimethylpropanoic acid], the MIC in the test with S. aureus (ATCC 29213) is not above 1 µg/mL; in test [1], 4 µg/mL (≈ 7.84 µM).

In the case of `CCNC(=O)Nc1cc(Nc2ccc(Cl)cc2)c(C(=O)Nc2ccc(CC(C)(C)C(=O)O)cc2)cn1` [Compound 160, 3-{4-[({4-[(4-chlorophenyl)amino]-6-[(ethylcarbamoyl)amino]pyridin-3-yl}carbonyl)amino]phenyl}-2,2-dimethylpropanoic acid], the MIC is not above 1 µg/mL with S. aureus (ATCC 29213) and 8 µg/mL (≈ 15.7 µM) in test [1].

Turning to `CCNC(=O)Nc1cc(Nc2ccccc2)c(C(=O)Nc2ccnc(C)c2)cn1` [Compound 90, 6-(3-ethylureido)-N-(2-methylpyridin-4-yl)-4-(phenylamino)nicotinamide], the results for the MIC (with S. aureus (ATCC 29213); in the test with S. pyogenes (ATCC 51339); in test [1]) were not above 1 µg/mL, not above 1 µg/mL and 8 µg/mL (≈ 20.5 µM), respectively.

As to `CCNC(=O)Nc1cc(Nc2ccc(F)c(OC)c2)c(C(=O)Nc2ccc(CC(C)(C)C(=O)O)cc2)cn1` [Compound 184, 3-{4-[({6-[(ethylcarbamoyl)amino]-4-[(4-fluoro-3-methoxyphenyl)amino]pyridin-3-yl}carbonyl)amino]phenyl}-2,2-dimethylpropanoic acid], the MIC with S. aureus (ATCC 29213) is not above 1 µg/mL; in test [1], 4 µg/mL (≈ 7.64 µM).

As to `CCNC(=O)Nc1cc(Nc2ccccc2)c(C(=O)Nc2ccc(/C=C/C(=O)O)cc2)cn1` [Compound 137, (2E)-3-{4-[({6-[(ethylcarbamoyl)amino]-4-(phenylamino)pyridin-3-yl}carbonyl)amino]phenyl}prop-2-enoic acid], the MIC is 2 µg/mL (≈ 4.49 µM) in the test on S. aureus (ATCC 29213) and 4 µg/mL (≈ 8.98 µM) in test [1].

Take `CCNC(=O)Nc1cc(Nc2cccnc2)c(C(=O)Nc2ccc(CC(C)(C)C(=O)O)cc2)cn1` [Compound 171, 3-{4-[({6-[(ethylcarbamoyl)amino]-4-(pyridin-3-ylamino)pyridin-3-yl}carbonyl)amino]phenyl}-2,2-dimethylpropanoic acid]: the MIC (in the test on S. aureus (ATCC 29213); in test [1]) was 4 µg/mL (≈ 8.39 µM) in each case.

As for `CCNC(=O)Nc1cc(Nc2ccccc2)c(C(=O)Nc2ccc(CCC(=O)O)cc2)cn1` [Compound 78, 3-[4-[[4-anilino-6-(ethylcarbamoylamino)pyridine-3-carbonyl]amino]phenyl]propanoic acid], the MIC in the test with S. aureus (ATCC 29213) was not above 1 µg/mL; with S. pyogenes (ATCC 51339), not above 1 µg/mL; in test [1] it was 2 µg/mL (≈ 4.47 µM).

For `CCNC(=O)Nc1cc(Nc2cccc(Cl)c2)c(C(=O)Nc2ccc(CC(C)(C)C(=O)O)cc2)cn1` [Compound 177, 3-{4-[({4-[(3-chlorophenyl)amino]-6-[(ethylcarbamoyl)amino]pyridin-3-yl}carbonyl)amino]phenyl}-2,2-dimethylpropanoic acid], the MIC in the test on S. aureus (ATCC 29213) was not above 1 µg/mL; in test [1], 4 µg/mL (≈ 7.84 µM).

Consider `CCNC(=O)Nc1cc(Nc2cccc(OC)c2)c(C(=O)Nc2ccc(CC(C)(C)C(=O)O)cc2)cn1` [Compound 178, 3-{4-[({6-[(ethylcarbamoyl)amino]-4-[(3-methoxyphenyl)amino]pyridin-3-yl}carbonyl)amino]phenyl}-2,2-dimethylpropanoic acid], for which the MIC in the test with S. aureus (ATCC 29213) is not above 1 µg/mL; in test [1], 4 µg/mL (≈ 7.91 µM).

`CCNC(=O)Nc1cc(Nc2ccc(OC)c(F)c2)c(C(=O)Nc2ccc(CC(C)(C)C(=O)O)cc2)cn1` [Compound 190, 3-{4-[({6-[(ethylcarbamoyl)amino]-4-[(3-fluoro-4-methoxyphenyl)amino]pyridin-3-yl}carbonyl)amino]phenyl}-2,2-dimethylpropanoic acid]: the MIC with S. aureus (ATCC 29213) is not above 1 µg/mL; in test [1], 2 µg/mL (≈ 3.82 µM).

For `CCNC(=O)Nc1cc(Nc2ccc(F)cc2)c(C(=O)Nc2ccc(CC(C)(C)C(=O)O)cc2)cn1` [Compound 175, 3-{4-[({6-[(ethylcarbamoyl)amino]-4-[(4-fluorophenyl)amino]pyridin-3-yl}carbonyl)amino]phenyl}-2,2-dimethylpropanoic acid], the MIC in the test on S. aureus (ATCC 29213) is not above 1 µg/mL; in test [1], 4 µg/mL (≈ 8.1 µM).

As to `CCNC(=O)Nc1cc(Nc2ccccc2)c(C(=O)Nc2ccc([C@@H]3C[C@H]3C(=O)O)cc2)cn1` [Compound 169], the MIC (in the test with S. aureus (ATCC 29213); in test [1]) was 2 µg/mL (≈ 4.35 µM) in each case.

For `CCNC(=O)Nc1cc(Nc2ccccc2)c(C(=O)Nc2ccc(CCC(=O)O)nc2)cn1` [Compound 166, 3-{5-[({6-[(ethylcarbamoyl)amino]-4-(phenylamino)pyridin-3-yl}carbonyl)amino]pyridin-2-yl}propanoic acid], the figures for the MIC (with S. aureus (ATCC 29213); in test [1]) were 16 µg/mL (≈ 35.7 µM) and 8 µg/mL (≈ 17.8 µM), respectively.

In the case of `CCNC(=O)Nc1cc(Nc2ccccc2)c(C(=O)Nc2ccc(C(=O)OC)cc2)cn1` [Compound 67, methyl 4-(6-(3-ethylureido)-4-(phenylamino)nicotinamido)benzoate], the MIC in the test with S. aureus (ATCC 29213) was not above 1 µg/mL; with S. pyogenes (ATCC 51339), not above 1 µg/mL; in test [1], 4 µg/mL (≈ 9.23 µM).

Consider `CCNC(=O)Nc1cc(Nc2ccccc2)c(C(=O)Nc2ccc(CCC(=O)OC)nc2)cn1` [Compound 179, methyl 3-{5-[({6-[(ethylcarbamoyl)amino]-4-(phenylamino)pyridin-3-yl}carbonyl)amino]pyridin-2-yl}propanoate], for which the MIC in the test on S. aureus (ATCC 29213) is not above 1 µg/mL; in test [1], 8 µg/mL (≈ 17.3 µM).

Consider `CCNC(=O)Nc1cc(Nc2ccc(Cl)cc2)c(C(=O)Nc2ccc(CCC(=O)O)cc2)cn1` [Compound 149, 3-{4-[({4-[(4-chlorophenyl)amino]-6-[(ethylcarbamoyl)amino]pyridin-3-yl}carbonyl)amino]phenyl}propanoic acid], for which the MIC with S. aureus (ATCC 29213) is not above 1 µg/mL; in test [1], 4 µg/mL (≈ 8.3 µM).

Regarding `CCNC(=O)Nc1cc(Nc2ccccc2)c(C(=O)Nc2cnc(NCC3(C(=O)O)CCC3)nc2)cn1` [Compound 168, 1-[({5-[({6-[(ethylcarbamoyl)amino]-4-(phenylamino)pyridin-3-yl}carbonyl)amino]pyrimidin-2-yl}amino)methyl] cyclobutanecarboxylic acid], the values for the MIC (in the test with S. aureus (ATCC 29213); in test [1]) were 2 µg/mL (≈ 3.96 µM) and 8 µg/mL (≈ 15.9 µM), respectively.

Regarding `CCNC(=O)Nc1cc(Nc2ccccc2F)c(C(=O)Nc2ccc(CC(C)(C)C(=O)O)cc2)cn1` [Compound 182, 3-{4-[({6-[(ethylcarbamoyl)amino]-4-[(2-fluorophenyl)amino]pyridin-3-yl}carbonyl)amino]phenyl}-2,2-dimethylpropanoic acid], the MIC is not above 1 µg/mL with S. aureus (ATCC 29213) and 4 µg/mL (≈ 8.1 µM) in test [1].

Consider `CCNC(=O)Nc1cc(Nc2ccnc(OC)c2)c(C(=O)Nc2cccnc2)cn1` [Compound 163], for which the figures for the MIC (with S. aureus (ATCC 29213); in test [1]) were not above 1 µg/mL and 8 µg/mL (≈ 19.6 µM), respectively.

Consider `CCNC(=O)Nc1cc(Nc2ccc(C(F)(F)F)cc2)c(C(=O)Nc2ccc(CCC(=O)O)cc2)cn1` [Compound 176, 3-[4-[[6-(ethylcarbamoylamino)-4-[4-(trifluoromethyl)anilino]pyridine-3-carbonyl]amino]phenyl]propanoic acid], for which the values for the MIC (in the test with S. aureus (ATCC 29213); in test [1]) were not above 1 µg/mL and 4 µg/mL (≈ 7.76 µM), respectively.

Turning to `CCNC(=O)Nc1cc(Nc2ccc(Cl)cc2)c(C(=O)Nc2ccc([C@@H]3C[C@H]3C(=O)O)cc2)cn1` [Compound 192, (1R,2R)-2-{4-[({4-[(4-chlorophenyl)amino]-6-[(ethylcarbamoyl)amino]pyridin-3-yl}carbonyl)amino]phenyl}cyclopropanecarboxylic acid], the MIC with S. aureus (ATCC 29213) was not above 1 µg/mL; in test [1], 2 µg/mL (≈ 4.05 µM).

Regarding `CCNC(=O)Nc1cc(Nc2ccccc2)c(C(=O)Nc2ccn(C)c(=O)c2)cn1` [Compound 134, 6-[(Ethylcarbamoyl)amino]-N-(1-methyl-2-oxo-1,2-dihydropyridin-4-yl)-4-(phenylamino)pyridine-3-carboxamide], the MIC in the test on S. aureus (ATCC 29213) came to 4 µg/mL (≈ 9.84 µM); in test [1] it was 8 µg/mL (≈ 19.7 µM).
